Assay results taken from patent EP4786483A1, “AURISTATIN DERIVATIVE AND ANTIBODY-DRUG CONJUGATE THEREOF” (priority 2023, dated 2025).
Like-named read-outs stand apart in the source and are kept apart here. Non-standard residues stand in square brackets, D forms with d. Residues, ends and D or L forms follow the SMILES beside them. *: point of attachment. Dolaproine = CO[C@@H]([C@@H]1CCCN1)[C@@H](C)C(=O)O; Dil = CC[C@H](C)[C@H](NC)[C@@H](CC(=O)O)OC; Phe(3-NH2) = Nc1cccc(C[C@H](N)C(=O)O)c1; NMe2Val = CC(C)[C@@H](C(=O)*)N(C)C

Columns and labels:
Test in all cases: Cytotoxicity test for compounds (CellTiter-Glo cell proliferation inhibition)
Format in all cases: cell-based
[1] = tested on: human breast cancer cells MDA-MB-468; settings: 3 days of incubation, CellTiter-Glo, read-out: MDA-MD-468/IC50
Method: (§1) Biological Test Example 1: Cytotoxicity Test for Compounds
(§2) • 96-well clear flat-bottom white plate (Corning, #3610) • RPMI1640 culture medium (Gibco, #A10491-01) • Fetal Bovine Serum (Sigma-Aldrich, #F8687-500ML) • CellTiter-Glo® Luminescent Cell Viability Assay (Promega, # G7572/G7571)
(§3) Human gastric cancer cells NCI-N87 (ATCC, Cat. No.: CRL-5822), human breast cancer cells MDA-MB-468 (Cell Bank of the Committee for Type Culture Collection of the Chinese Academy of Sciences, Cat. No.: TCHu136), and human breast cancer cells KPL-4 (Nanjing Cobioer Biosciences Co., Ltd., Cat. No.: CBP60379) were washed with PBS and digested with 0.25% Trypsin-EDTA trypsin for about 3-10 min. The digestion was terminated with a complete cell culture medium. The cells were centrifuged at 1000 rpm for 5 min, and the supernatant was discarded. The cells were resuspended in a complete cell culture medium. The cell number was counted using a cell counter, and the cells were adjusted to the desired density. 90.0 µL of the cell suspension was added to each well at 3000 cells/well. The cell plate was incubated in a cell incubator at 37°C with 5% CO2 overnight.
(§4) In the experiment, a DMSO control group and test sample groups were set. The cell plate was removed from the incubator to observe cell adherence. After the cells adhered, 10.00 µL of the sample (starting from a final concentration of 10 µM, 5-fold dilution, 9 concentrations) was added to each well. After the mixture was gently shaken uniformly, the plate was incubated in the incubator.
(§5) After 3 days of incubation, 100.0 µL/well of CellTiter-Glo™ (Promega, Cat. No.: G7572/G7571) working solution was added. The plate was shaken on a thermostatic shaker to lyse the cells. After 10 min, the plate was read on a microplate reader.
(§6) Data analysis: GraphPad Prism 8.0 software was used to plot a graph with the Log value of the sample concentration as the abscissa and the Inhibition% as the ordinate. The data were analyzed by Nonlinear regression (curve fit) to obtain the IC50 value of each test sample. Table 1. Inhibition activity of compounds of the present disclosure on cell proliferation

[2] = tested on: human breast cancer cells KPL-4; settings: 3 days of incubation, CellTiter-Glo, read-out: KPL-4/IC50
Method: as §1, §2, §3, §4, §5, §6

[3] = tested on: Human gastric cancer cells NCI-N87; settings: 3 days of incubation, CellTiter-Glo, read-out: NCI-87/IC50
Method: as §1, §2, §3, §4, §5, §6

Row | Structure (SMILES) | IC50 ([1]; Homo sapiens, MDA-MB-468, 72 h) [nM] | IC50 ([2]; Homo sapiens, KPL4, 72 h) [nM] | IC50 ([3]; Homo sapiens, NCI-N87, 72 h) [nM] | IC50 [1] [nM] | IC50 [2] [nM] | IC50 [3] [nM]
1 | C#CC(Cc1cccc(N)c1)OC(=O)[C@H](C)[C@@H](OC)[C@@H]1CCCN1C(=O)C[C@@H](OC)[C@H]([C@@H](C)CC)N(C)C(=O)[C@@H](NC(=O)[C@H](C(C)C)N(C)C)C(C)C (single isomer, unassigned) [Example 21] | < 0.0256 | < 0.0256 | < 0.0256 | – | – | –
2 | CC[C@H](C)[C@@H]([C@@H](CC(=O)N1CCC[C@H]1[C@H](OC)[C@@H](C)C(=O)OC(/C=C/C(=O)OC)Cc1cccc(N)c1)OC)N(C)C(=O)[C@@H](NC(=O)[C@H](C(C)C)N(C)C)C(C)C (single isomer, unassigned) [Example 28] | 3.25 | < 0.0256 | 3.33 | – | – | –
3 | CC[C@H](C)[C@@H]([C@@H](CC(=O)N1CCC[C@H]1[C@H](OC)[C@@H](C)C(=O)OC(/C=C/C(=O)OC)Cc1cccc(N)c1)OC)N(C)C(=O)[C@@H](NC(=O)[C@H](C(C)C)N(C)C)C(C)C (single isomer, unassigned) [Example 29] | – | – | – | 3.17 | < 0.0256 | 3.73
4 | CC[C@H](C)[C@@H]([C@@H](CC(=O)N1CCC[C@H]1[C@H](OC)[C@@H](C)C(=O)N1CCS[C@H](c2cccc(N)c2)C1)OC)N(C)C(=O)[C@@H](NC(=O)[C@H](C(C)C)N(C)C)C(C)C (single isomer, unassigned) [Example 60-P1] | 8.02 | 5.81 | 9.63 | – | – | –
5 | CC[C@H](C)[C@@H]([C@@H](CC(=O)N1CCC[C@H]1[C@H](OC)[C@@H](C)C(=O)N1CCSC(c2cccc(N)c2)C1)OC)N(C)C(=O)[C@@H](NC(=O)[C@H](C(C)C)N(C)C)C(C)C (single isomer, unassigned) [Example 60-P2] | 1.01 | 0.6 | 0.71 | – | – | –
6 | CC[C@H](C)[C@@H]([C@@H](CC(=O)N1CCC[C@H]1[C@H](OC)[C@@H](C)C(=O)N1CCS(=O)(=O)[C@H](c2cccc(N)c2)C1)OC)N(C)C(=O)[C@@H](NC(=O)[C@H](C(C)C)N(C)C)C(C)C (single isomer, unassigned) [Example 61-P1] | 34.6 | 49.5 | 93.9 | – | – | –
7 | CC[C@H](C)[C@@H]([C@@H](CC(=O)N1CCC[C@H]1[C@H](OC)[C@@H](C)C(=O)N1CCS(=O)(=O)[C@@H](c2cccc(N)c2)C1)OC)N(C)C(=O)[C@@H](NC(=O)[C@H](C(C)C)N(C)C)C(C)C (single isomer, unassigned) [Example 61-P2] | 13.3 | 24.3 | 56.3 | – | – | –
8 | CC[C@H](C)[C@@H]([C@@H](CC(=O)N1CCC[C@H]1[C@H](OC)[C@@H](C)C(=O)N[C@H](CCl)Cc1cccc(N)c1)OC)N(C)C(=O)[C@@H](NC(=O)[C@H](C(C)C)N(C)C)C(C)C [Example 1, (S)-N-((3R,4S,5S)-1-((S)-2-((1R,2R)-3-(((S)-1-(3-aminophenyl)-3-chloropropan-2-yl)amino)-1-methoxy-2-methyl-3-oxopropyl)pyrrolidin-1-yl)-3-methoxy-5-methyl-1-oxoheptan-4-yl)-2-((S)-2-(dimethylamino)-3-methylbutanamido)-N,3-dimethylbutanamide] | 0.63 | 0.41 | 0.74 | – | – | –
9 | C#C[C@H](Cc1cccc(N)c1)NC(=O)[C@H](C)[C@@H](OC)[C@@H]1CCCN1C(=O)C[C@@H](OC)[C@H]([C@@H](C)CC)N(C)C(=O)[C@@H](NC(=O)[C@H](C(C)C)N(C)C)C(C)C [Example 2, (S)-N-((3R,4S,5S)-1-((S)-2-((1R,2R)-3-(((S)-1-(3-aminophenyl)-but-3-yn-2-yl)amino)-1-methoxy-2-methyl-3-oxopropyl)pyrrolidin-1-yl)-3-methoxy-5-methyl-1-oxoheptan-4-yl)-2-((S)-2-(dimethylamino)-3-methylbutanamido)-N,3-dimethylbutanamide] | 0.36 | 0.21 | 0.51 | – | – | –
10 | CC[C@H](C)[C@@H]([C@@H](CC(=O)N1CCC[C@H]1[C@H](OC)[C@@H](C)C(=O)N[C@@H](Cc1cccc(N)c1)C(N)=O)OC)N(C)C(=O)[C@@H](NC(=O)[C@H](C(C)C)N(C)C)C(C)C [Example 3, (S)-N-((3R,4S,5S)-1-((S)-2-((1R,2R)-3-(((S)-1-amino-3-(3-aminophenyl)-1-oxopropan-2-yl)amino)-1-methoxy-2-methyl-3-oxopropyl)pyrrolidin-1-yl)-3-methoxy-5-methyl-1-oxoheptan-4-yl)-2-((S)-2-(dimethylamino)-3-methylbutanamido)-N,3-dimethylbutanamide] (NMe2Val-V[Dil][Dolaproine][Phe(3-NH2)]-NH2) | 25.1 | 18.9 | 38.4 | – | – | –
11 | CC[C@H](C)[C@@H]([C@@H](CC(=O)N1CCC[C@H]1[C@H](OC)[C@@H](C)C(=O)N[C@@H](Cc1cccc(N)c1)C(=O)NC)OC)N(C)C(=O)[C@@H](NC(=O)[C@H](C(C)C)N(C)C)C(C)C [Example 4, (S)-N-((3R,4S,5S)-1-((S)-2-((1R,2R)-3-(((S)-3-(3-aminophenyl)-1-(methylamino)-1-oxopropan-2-yl)amino)-1-methoxy-2-methyl-3-oxopropyl)pyrrolidin-1-yl)-3-methoxy-5-methyl-1-oxoheptan-4-yl)-2-((S)-2-(dimethylamino)-3-methylbutanamido)-N,3-dimethylbutanamide] (NMe2Val-V[Dil][Dolaproine][Phe(3-NH2)]-NHMe) | 6.12 | 5.26 | 14.7 | – | – | –
12 | C=CCN(CCc1cccc(N)c1)C(=O)[C@H](C)[C@@H](OC)[C@@H]1CCCN1C(=O)C[C@@H](OC)[C@H]([C@@H](C)CC)N(C)C(=O)[C@@H](NC(=O)[C@H](C(C)C)N(C)C)C(C)C [Example 5, (S)-N-((3R,4S,5S)-1-((S)-2-((1R,2R)-3-(allyl(3-aminophenethyl)amino)-1-methoxy-2-methyl-3-oxopropyl)pyrrolidin-1-yl)-3-methoxy-5-methyl-1-oxoheptan-4-yl)-2-((S)-2-(dimethylamino)-3-methylbutanamido)-N,3-dimethylbutanamide] | 8.81 | 3.56 | 4.28 | – | – | –
13 | CC[C@H](C)[C@@H]([C@@H](CC(=O)N1CCC[C@H]1[C@H](OC)[C@@H](C)C(=O)N1CCO[C@H](c2cccc(N)c2)C1)OC)N(C)C(=O)[C@@H](NC(=O)[C@H](C(C)C)N(C)C)C(C)C [Example 48, (S)-N-((3R,4S,55)-1-((S)-2-((1R,2R)-3-((R)-2-(3-aminophenyl)morpholino)-1-methoxy-2-methyl-3-oxopropyl)pyrrolidin-1-yl)-3-methoxy-5-methyl-1-oxoheptan-4-yl)-2-((S)-2-(dimethylamino)-3-methylbutanamido)-N,3-dimethylbutanamide] | – | – | – | – | 2.06 | 4.73
14 | CC[C@H](C)[C@@H]([C@@H](CC(=O)N1CCC[C@H]1[C@H](OC)[C@@H](C)C(=O)N1CCO[C@@H](c2cccc(N)c2)C1)OC)N(C)C(=O)[C@@H](NC(=O)[C@H](C(C)C)N(C)C)C(C)C [Example 51, (S)-N-((3R,4S,SS)-1-((S)-2-((1R,2R)-3-((S)-2-(3-aminophenyl)morpholino)-1-methoxy-2-methyl-3-oxopropyl)pyrrolidin-1-yl)-3-methoxy-5-methyl-1-oxoheptan-4-yl)-2-((S)-2-(dimethylamino)-3-methylbutanamido)-N,3-dimethylbutanamide] | – | – | – | – | 6.03 | 16.1
